Assay results: article PMC2852583 (Biochemistry, 2010)

Target: T1, pKSI (Δ5-3-ketosteroid isomerase from Pseudomonas putida) (Pseudomonas putida, UniProt P07445, D40N)
T1 sequence (P07445 1-131 D40N): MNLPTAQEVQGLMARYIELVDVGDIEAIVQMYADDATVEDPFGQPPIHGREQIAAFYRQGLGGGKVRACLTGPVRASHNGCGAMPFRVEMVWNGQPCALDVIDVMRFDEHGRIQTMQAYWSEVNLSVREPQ
Assay: fluorescence emission, linear combination of bound and free spectra
Format: binding

Structure (SMILES)	Kd
Oc1ccc2cc(O)ccc2c1 [2,6-dihydroxynaphthalene]	20 ± 6 µM
Oc1ccc2cc(Br)ccc2c1 [6-bromo-2-naphthol]	4 ± 1 µM
N#Cc1ccc2cc(O)ccc2c1 [6-cyano-2-naphthol]	2 ± 1 µM
COc1ccc2cc(O)ccc2c1 [6-methoxy-2-naphthol]	10 ± 5 µM
